1 sequence from patent US9572862B2, “Methods for promoting lipolysis and oxidation in liver and adipose tissue using catestatin” (The Regents of the University of California, priority 2012, dated 2017) can be followed below.

“Also recorded” adds a separate entry of the source. No end group written: not given here.

For one data set, the system named is HFD-fed WT mice. In words: CST treatment of HFD-fed WT mice. The class given is in vivo. From the text:
FIG. 12. Metabolic phenotypes in HFD-fed CST-KO mice. (A) CST-KO mice eat more 60% HFD than WT. (B) CST-KO mice gained more weight than WT. (C) Heightened glucose resistance at baseline in CST-KO mice compared to WT mice. […] Figures in parentheses indicate number of animals.

For the next data set, the system named is DIO mice. In words: CST administration to DIO mice for 16 days. Format: in vivo. The protocol:
FIG. 7. Effects of CST administration to DIO and Ob/Ob mice on food intake, body weight, adipose tissue weight, and lipolysis. CST (5 μg/g BW, i.p./day) or saline was administered to DIO and Ob/Ob mice for 16 days. Food intake for DIO mice (A) and Ob/Ob mice (B) was measured every other day. Percent changes in final body weight and WAT mass (as % of body weight) were determined for DIO (C) and Ob/Ob (D) mice. Plasma glycerol (E) and NEFA (F) were quantified for DIO and Ob/Ob mice at the end of CST treatment.
Adult male (7 month old) WT (31.8±1.2 g) and Chga-KO (39.2±1.5 g) mice in the mixed genetic background (129SvJ×C57BL/6) were studied. Both genotypes were generated from the original founder carrying mixed genotype (50% 129SvJ, 50% C57BL/6) and were maintained by sibling mating. Animals were kept in a 12 hr dark/light cycle and fed standard chow ad libitum. Male C57BL/6 mice, 8 week old, were fed 60% high fat diet (D12492: Research Diets, Inc., New Brunswick) for 16 weeks before using for experiments. Male leptin-deficient (C57BL/6J-Ob/Ob) mice from the Jackson Laboratory were maintained on a standard chow diet. The Institutional Animal Care and Utilization Committee approved all procedures. Chga-KO, DIO and Ob/Ob mice were treated daily with saline or CST (5 μg/g BW, i.p.; 12 days for Chga-KO mice and 16 days for DIO and Ob/Ob mice).
Mice were fasted for 12 hr prior to blood draw. Triglycerides (TG) and non-esterified fatty acids (NEFA) were assayed using kits from Wako Diagnostics (Richmond, Va.). Glycerol was assayed using a kit from Sigma (St Louis, Mo.). Media from the explant cultures and mouse serum were analysed for glycerol and NEFA as a measure of lipolysis. ELISA kits were used to determine plasma levels of leptin, adiponectin (Millipore, Billerica, Mass.) and CST (Bachem, Torrance, Calif.). For CST assay, plasma samples and reference standards were passed through mini C18 columns and the flow-through fractions were assayed. The same kits were used for measurements in culture media.

A short description of data set [1]: Plasma CST level (ELISA) after CST administration. The following applies: WT mice on NCD, CST 5 μg/g BW i.p./day for 12 days. The class given is in vivo. The protocol:
FIG. 1. Plasma parameters of wild-type (WT) and Chga-KO mice treated with saline or CST. (A) Plasma CST from saline or CST (5 μg/g BW, i.p./day) treated WT mice (28 week old) on normal chow (NCD) and high fat diet (60% fat for 16 weeks) as well as from Chga-KO mice (28 week old) on NCD. Body weights (B) and epididymal fat pad size normalized to body weight (C) in 28 week old WT and Chga-KO mice treated with saline or CST for 12 days. Plasma triglyceride (TG) (D), glycerol (E), non-esterified fatty acids (NEFA) (F), and leptin (G) in 28 week old WT and Chga-KO mice after treatment with saline or CST for 12 days. (H) Leptin in adipocyte culture media after treatment with saline or CST.
Adult male (7 month old) WT (31.8±1.2 g) and Chga-KO (39.2±1.5 g) mice in the mixed genetic background (129SvJ×C57BL/6) were studied. Both genotypes were generated from the original founder carrying mixed genotype (50% 129SvJ, 50% C57BL/6) and were maintained by sibling mating. Animals were kept in a 12 hr dark/light cycle and fed standard chow ad libitum. Male C57BL/6 mice, 8 week old, were fed 60% high fat diet (D12492: Research Diets, Inc., New Brunswick) for 16 weeks before using for experiments. […]
Mice were fasted for 12 hr prior to blood draw. […] Media from the explant cultures and mouse serum were analysed for glycerol and NEFA as a measure of lipolysis. […]

The subject of a further data set is CST-KO mice. In words: ITT in insulin resistant CST-KO mice with CST, RI-CST or NSC-177941. The class given is in vivo. The following applies: ITT in CST-KO mice. The source says:
FIG. 16. […] Figures in parentheses indicate number of animals.

Data set [2] concerns PC-12 neuroendocrine cells. In words: cAMP production in PC-12 cells. The class given is cell-based.
A further data set has as its system 3T3-L1 adipocytes. In words: cAMP production in 3T3-L1 adipocytes. The conditions noted are these: CST 100 nM, ISO 10 μM, 10 min. The class given is cell-based.
Data set [3] concerns adipose tissue explants from Ob/Ob mice. In words: Lipolysis and fatty acid oxidation in adipose explants of Ob/Ob mice. Format: cell-based. Here is the method: FIG. 8. Lipolysis and fatty acid oxidation in the adipose tissue explants of DIO and Ob/Ob mice after treatment with saline or CST for 16 days. Explants were incubated with saline or leptin (1 μM) for 3 hr and the concentrations of glycerol (A&C) and NEFA (B&D) released into the media from DIO (A&B) and Ob/Ob (C&D) explants were determined as a measure of lipolysis. Homogenates of the explants from DIO (E) and Ob/Ob […] were used to determine their capacity for oxidation of U-^14C-palmitate in response to the treatment with saline, CST, leptin and CST+leptin. The ^14CO2 released was captured and counted as the measure of fatty acid oxidation.
Adipose tissue explants were prepared as described (42). Epididymal fat pads from 12 hr fasted WT, Chga-KO, DIO and Ob/Ob mice with or without CST treatment were collected in Kreb-Ringer-phosphate (KRP) buffer containing 10 mM Hepes and 0.5% BSA. Tissues were minced to 1-2 mm size and treated with 100 nM CST, 1 μM leptin, or saline for 30 min (for signaling analysis) or 3 hr (for lipolysis and β-oxidation assays). Explants were also treated acutely with CST, leptin, a combination, or saline. At the end, incubation media were saved for analysis of glycerol and fatty acid release. Explants were washed prior to homogenization for immunoblotting and analysis of fatty acid oxidation.
Oxidation of radiolabeled palmitate in the homogenates of adipose tissue explants as described previously (45). For oxidation studies of cultured cells, HepG2 (hepatocytes) and 3T3-L1 preadipocytes were obtained from ATCC and cultured following supplier's protocol. Confluent 3T3-L1 cultures were differentiated into adipocytes by treating with a cocktail of dexamethasone (100 nM), IBMX ([…]) and insulin (100 nM) for 10 days. Media were then switched to serum-free DMEM with 1% BSA. Hepatocytes were assayed for lipogenesis and fat oxidation in response to CST treatment. Serum-free cultures were treated with CST (100 nM) for 24 hr followed by a 2 hr incubation with U^14C-palmitate (0.5 μCi/ml). Fatty acid oxidation in cells was determined by modifying a published method (46). Specifically, the culture media in 24-well plates were acidified with 10% HClO4 after incubation with the labeled fatty acid and immediately covered with a thick filter paper sheet (cut to size) soaked in 2 N NaOH and placed underneath the plastic lid. The whole plate was sealed with parafilm. After further incubation for 2 hr, the filter paper sheet was marked as circles around the rim of the wells and then the circles were excised. The filter discs were counted to determine the amount of ^14CO2 absorbed in the papers. Cells in the culture wells were lysed in 1 N NaOH and protein content was assayed using Folin's reagent (BioRad, Hercules, Calif.).

A short description of data set [4]: Insulin secretion in culture. Format: cell-based.

For SSMKLSFRARAYGFRGPGPQL [CST], in the data set with HFD-fed WT mice, the “basal plasma insulin level” value is recorded as “decreased; also recorded: reduced hyperinsulinemia” and the insulin sensitivity result was “improvement in insulin sensitivity; also recorded: sensitive to insulin”. Also, in the data set with DIO mice (CST 5 μg/g BW i.p./day 16 days), the food intake result is “did not change”. Moreover, in the data set with DIO mice (CST 16 days), the “decrease in adipose tissue mass” value is “about 2 g”, the “plasma concentration of NEFA (lipolysis)” value is recorded as “increased” and the “plasma concentration of glycerol (lipolysis)” value is recorded as “increased”. The “time plasma CST maintained at this level” value in data set [1] is “at least 4 hr”. Moreover, the “persistence of the insulin-sensitizing effect” value in the data set with CST-KO mice was “persisted throughout the experimental period”. Further, in data set [2], the “basal or isoproterenol-induced cAMP levels” value was “did not modulate”. The cAMP production result in data set [2] (CST 100 nM, ISO 10 μM, 10 min) was “not by CST”. Further, the cAMP production result in the data set with 3T3-L1 adipocytes is recorded as “not by CST”. The palmitate oxidation result in data set [3] is on record as “not CST alone”. Also, the “lipolysis (glycerol and NEFA release)” value in data set [3] (CST in vivo 16 days, leptin 1 μM ex vivo 3 hr) is “did not influence lipolysis”. The “insulin secretion in culture” value in data set [4] is given as “Stimulated Insulin Secretion in Culture in a Glucose-Independent Manner”.
